In patent US8110570B2, “Modulators of acetyl-coenzyme A carboxylase and methods of use thereof” (Cropsolution, Inc., priority 2008, dated 2012):

Tests used:
hACC2 = molecular target: T1, hACC2 (Homo sapiens, UniProt O00763); assay: [14C]bicarbonate incorporation assay, overall ACC activity; type: biochemical; conditions: recombinant hACC2, overall ACC activity
T1 construct: delete amino acids 1-148 and add Met-Gly in front of Lys149 in the final product; His tag (C); made in house; host or cells: baculovirus, Sf9 insect cells
Experimental: (§1) In vitro IC50 values of human ACC were determined using recombinant enzyme produced by standard procedures. For example, full-length cDNAs for both the human isoforms (hACC1 and hACC2) were each cloned and expressed as a recombinant protein using a baculovirus system. Double stranded cDNA from human fetal liver (Quick-Clone cDNA, cat. #7171-1) was purchased from BD/Clontech (Mt. View, Calif.). PCR primers were designed for full-length hACC1 and hACC2 using GenBank submissions AY237919 and AJ575592, respectively. The Advantage GC 2 PCR kit (BD/Clontech) was used for amplification. The PCR products (about 7 Kb) were TOPO-cloned into the pCR4Blunt vector (Invitrogen, Carlsbad, Calif.), and 6 clones of each gene were isolated. […] Full length versions of the two cDNAs corresponding to their respective Genbank sequences were assembled in pBluescript SK+ (Stratagene, La Jolla, Calif.) by combining error-free fragments from the PCR clones. The resulting hACC1 clone, designated pCS35, has six silent nucleotide differences compared to Genbank accession AY237919. The final hACC2 clone, designated pCS36, has ten silent nucleotide differences compared to Genbank accession AJ575592. Primers were designed to PCR amplify the cDNAs along with the in-frame 3′-his tag sequences from the pET vector and TOPO-cloned the resulting products into the Gateway® entry vector pENTR/D-TOPO. The ACC2 primers were designed to delete amino acids 1-148 and add Met-Gly in front of Lys149 in the final product. The resulting entry clones were transferred to BaculoDirect™ linear DNA (Invitrogen corp.) using the Gateway® LR recombination reaction. The recombinant baculovirus DNA was transfected into insect cells and viral amplification was performed according to the manufacturer's protocols. For protein expression sf9 cells were infected with a P3 viral stock in the presence of 50 uM biotin. The cells were harvested after 48-72 hr, lysed by sonication, and the resulting extract was clarified by centrifugation. ACC in the crude extract was concentrated by ammonium sulfate precipitation (40% w/v) and purified by Ni^2+-NTA chromatography (Novagen) followed by anion exchange chromatography on a UNO-Q column (BioRad).
(§2) Overall ACC activity in the hACC preparations is measured by following incorporation of [^14C]bicarbonate into […] essentially as described (Thumpy and Wakil, J Biol Chem 260, 6318-6323 (1985). Briefly, the reaction mixture (50 μL) contains: 50 mM Hepes (pH7.4), 20 mM K-Citrate, 20 mM Mg-Acetate 1.5 mM MgSO4, 2 mM DTT, 2 mM acetyl-CoA, 12 mM NaHCO3, 0.2 mM NaH^14CO3 (˜50 mCi/mmol), 0.01% (v/v) Triton X-100, 0.75 mg/mL BSA, 1% (v/v) DMSO (with or without inhibitor), and 0.3 μg (hACC1) or 0.15 μg (hACC2) enzyme. Reactions are initiated by the addition of ATP to a final concentration 2 mM. After 10 minutes at 37° C., the reaction is stopped by the addition of 2N HCl (50 μL). The samples are evaporated in a hood overnight, resuspended in H2O (200 μL), and incorporated label is quantified by scintillation counting in scintillation cocktail (3 mL). Inhibition data are fit to dose-response curves and IC50 values are reported (i.e. the concentration of inhibitor that gives 50% inhibition).

hACC1 = molecular target: T2, hACC1 (Homo sapiens, UniProt Q13085); assay: as above; type: biochemical; conditions: recombinant hACC1, overall ACC activity
T2 construct: PCR primers were designed for full-length hACC1 and hACC2 using GenBank submissions AY237919 and AJ575592, respectively; His tag (C); made in house; host or cells: baculovirus, Sf9 insect cells
Experimental: as §1, §2

T1 sequence (O00763 149-2458 limits assumed): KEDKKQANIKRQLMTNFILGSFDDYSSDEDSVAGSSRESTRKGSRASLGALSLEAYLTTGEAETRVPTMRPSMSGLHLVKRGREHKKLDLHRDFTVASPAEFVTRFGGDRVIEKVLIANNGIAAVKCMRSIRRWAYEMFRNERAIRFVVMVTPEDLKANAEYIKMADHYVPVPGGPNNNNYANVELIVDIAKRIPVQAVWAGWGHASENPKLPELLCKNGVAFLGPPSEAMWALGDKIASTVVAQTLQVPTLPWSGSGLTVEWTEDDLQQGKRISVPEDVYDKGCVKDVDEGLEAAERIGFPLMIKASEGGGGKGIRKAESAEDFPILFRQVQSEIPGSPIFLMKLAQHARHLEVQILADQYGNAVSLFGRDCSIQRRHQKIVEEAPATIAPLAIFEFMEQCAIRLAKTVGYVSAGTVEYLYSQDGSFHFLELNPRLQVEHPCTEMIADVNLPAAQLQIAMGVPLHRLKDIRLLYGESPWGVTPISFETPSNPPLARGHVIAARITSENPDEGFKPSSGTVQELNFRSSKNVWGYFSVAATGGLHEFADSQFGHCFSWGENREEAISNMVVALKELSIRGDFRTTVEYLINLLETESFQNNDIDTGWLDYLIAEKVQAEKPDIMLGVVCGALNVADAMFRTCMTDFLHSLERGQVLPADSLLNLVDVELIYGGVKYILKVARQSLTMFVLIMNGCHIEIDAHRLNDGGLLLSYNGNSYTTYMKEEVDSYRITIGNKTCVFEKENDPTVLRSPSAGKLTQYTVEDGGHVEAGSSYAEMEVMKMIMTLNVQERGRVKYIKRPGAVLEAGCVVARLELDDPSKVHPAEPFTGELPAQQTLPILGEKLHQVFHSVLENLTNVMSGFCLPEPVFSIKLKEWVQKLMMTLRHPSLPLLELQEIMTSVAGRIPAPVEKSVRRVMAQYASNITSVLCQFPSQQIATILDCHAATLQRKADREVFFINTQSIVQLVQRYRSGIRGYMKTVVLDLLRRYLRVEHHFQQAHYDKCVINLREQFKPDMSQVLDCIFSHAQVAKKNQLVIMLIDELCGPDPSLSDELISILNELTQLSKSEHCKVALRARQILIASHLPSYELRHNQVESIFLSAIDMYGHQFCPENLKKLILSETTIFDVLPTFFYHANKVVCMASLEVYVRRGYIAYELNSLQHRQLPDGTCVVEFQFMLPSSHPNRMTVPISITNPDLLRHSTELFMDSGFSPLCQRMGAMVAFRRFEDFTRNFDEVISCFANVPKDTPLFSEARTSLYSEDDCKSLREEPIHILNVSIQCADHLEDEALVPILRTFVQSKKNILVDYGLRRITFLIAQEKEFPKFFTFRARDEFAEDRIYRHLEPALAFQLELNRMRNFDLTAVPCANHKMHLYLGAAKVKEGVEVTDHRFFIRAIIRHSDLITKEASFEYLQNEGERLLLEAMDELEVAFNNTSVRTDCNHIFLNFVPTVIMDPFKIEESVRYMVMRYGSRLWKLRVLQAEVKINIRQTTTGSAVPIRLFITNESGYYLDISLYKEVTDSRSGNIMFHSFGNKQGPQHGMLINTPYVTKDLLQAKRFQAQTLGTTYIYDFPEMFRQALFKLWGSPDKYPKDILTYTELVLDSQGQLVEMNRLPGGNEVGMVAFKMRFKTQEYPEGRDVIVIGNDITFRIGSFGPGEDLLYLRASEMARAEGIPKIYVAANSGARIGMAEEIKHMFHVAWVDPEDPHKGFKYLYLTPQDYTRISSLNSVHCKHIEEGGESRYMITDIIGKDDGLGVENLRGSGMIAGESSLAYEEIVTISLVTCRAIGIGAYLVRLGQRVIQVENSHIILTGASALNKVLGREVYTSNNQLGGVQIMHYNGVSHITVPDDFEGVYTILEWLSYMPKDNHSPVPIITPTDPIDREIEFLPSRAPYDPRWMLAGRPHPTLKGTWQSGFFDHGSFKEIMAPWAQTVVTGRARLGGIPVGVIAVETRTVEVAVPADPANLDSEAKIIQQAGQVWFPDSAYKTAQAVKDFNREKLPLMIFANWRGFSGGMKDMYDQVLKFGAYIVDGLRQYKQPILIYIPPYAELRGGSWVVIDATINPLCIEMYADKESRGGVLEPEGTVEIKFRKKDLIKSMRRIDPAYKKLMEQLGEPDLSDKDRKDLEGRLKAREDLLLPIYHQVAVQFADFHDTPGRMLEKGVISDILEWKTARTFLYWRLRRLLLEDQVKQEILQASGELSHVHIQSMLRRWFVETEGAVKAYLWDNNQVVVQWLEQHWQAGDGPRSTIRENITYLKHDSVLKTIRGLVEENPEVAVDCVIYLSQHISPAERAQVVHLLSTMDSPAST

Compound	IC50 (hACC2) [nM]	IC50 (hACC1) [nM]
COc1ccc2cc3c(cc2c1)C(=O)NC1(CCN(C(=O)c2[nH]c4c(OC)cccc4c2C)CC1)O3 [Compound 166, 7-Methoxy-1′-[[7-methoxy-3-methyl-1H-indol-2-yl)carbonyl]spiro[2H-naphtho[2,3-e]-1,3-oxazin-2,4′-piperidin]-4-(3H)-one]	31	36
COc1cc(C(=O)N2CCC3(CC2)NC(=O)c2cc(OC(F)(F)F)ccc2O3)cc2c(OC)cccc12 [Compound 173]		6
COc1cccc2c(C)c(C(=O)N3CCC4(CC3)NC(=O)c3cc(NC(C)=O)ccc3O4)[nH]c12 [Compound 24]	77	100
COc1cc(C(=O)N2CCC3(CC2)NC(=O)c2cc(C)ccc2O3)nc2c(SC)cccc12 [Compound 148]	66	88
COc1cccc2c(C)c(C(=O)N3CCC4(CC3)NC(=O)c3cc(C)ccc3O4)[nH]c12 [Compound 143]	190	130
COc1cc(C(=O)N2CCC3(CC2)NC(=O)c2cc(C(C)C)ccc2O3)cc2c(SC)cccc12 [Compound 179]		38
COc1cc(C(=O)N2CCC3(CC2)NC(=O)c2cc(Br)ccc2O3)nc2c(C(C)C)cccc12 [Compound 134]		4700
COc1cc(C(=O)N2CCC3(CC2)NC(=O)c2cc(Br)ccc2O3)c(OC)c2ccccc12 [Compound 135, 6-Bromo-1′-[(1,4-dimethoxynaphth-2-yl)carbonyl]spiro[2H-1,3-benzoxazin-2,4′-piperidin]-4-(3H)-one]		2200
COc1ccc(OC)c2c1cc(C(=O)N1CCC3(CC1)NC(=O)c1cc(Br)ccc1O3)n2C [Compound 26]	590	830
COc1cc(C(=O)N2CCC3(CC2)NC(=O)c2cc4ccccc4cc2O3)nc2c(SC)cccc12 [Compound 158]	8	
COc1cc2c(cc1OC)C(=O)NC1(CCN(C(=O)c3cc(OC)c4cccc(OC)c4n3)CC1)N2 [Compound 191]		190
COc1ccc2c(c1)C(=O)NC1(CCN(C(=O)c3cc(OC)c4cccc(SC)c4c3)CC1)O2 [Compound 177]		5
COc1ccc(OC)c2c1cc(C(=O)N1CCC3(CC1)NC(=O)c1cc(OC(C)C)ccc1O3)n2C [Compound 185]	83	90
COc1ccc(OC)c2[nH]c(C(=O)N3CCC4(CC3)NC(=O)c3cc(NC(C)=O)ccc3O4)cc12 [Compound 17]	310	260
COc1cc(C(=O)N2CCC3(CC2)NC(=O)c2cc(C)c(C)cc2O3)nc2c(OC)cccc12 [Compound 153]	16	35
COc1cc(C(=O)N2CCC3(CC2)NC(=O)c2cc(-c4nnn[nH]4)ccc2O3)nc2c(OC)cccc12 [Compound 10]	11	16
COc1ccc2c(c1)C(=O)NC1(CCN(C(=O)c3cc4c(OC)ccc(OC)c4[nH]3)CC1)O2 [Compound 182]		160
COc1cc(C(=O)N2CCC3(CC2)NC(=O)c2cc(C)ccc2N3)cc2c(OC)cccc12 [Compound 192]		160
COc1cccc2c(C)c(C(=O)N3CCC4(CC3)NC(=O)c3cc(N)ccc3O4)[nH]c12 [Compound 183]		430
COc1cc(C(=O)N2CCC3(CC2)NC(=O)c2cc4ccccc4cc2O3)nc2c(OC)cccc12 [Compound 159]	5	4
COc1cc(C(=O)N2CCC3(CC2)NC(=O)c2cc(NC(C)=O)ccc2O3)cc2c(OC)cccc12 [Compound 31, 6-Acetamido-1′-[(4,8-dimethoxynaphth-2-yl)carbonyl]spiro[2H-1,3-benzoxazin-2,4′-piperidin]-4-(3H)-one]	3	6.2

Compound	IC50 (hACC2) [nM]	IC50 (hACC1) [nM]
COc1cccc2c(C)c(C(=O)N3CCC4(CC3)NC(=O)c3cc5ccccc5cc3O4)[nH]c12 [Compound 161, 1′-[[7-Methoxy-3-methyl-1H-indol-2-yl)carbonyl]spiro[2H-naphtho[2,3-e]-1,3-oxazin-2,4′-piperidin]-4-(3H)-one]		8
COc1cc(C(=O)N2CCC3(CC2)NC(=O)c2cc(N4CCOCC4)ccc2O3)cc2c(OC)cccc12 [Compound 197]		4
COc1cc2c(OC)cccc2cc1C(=O)N1CCC2(CC1)NC(=O)c1cc(Cl)ccc1O2 [Compound 131, 6-Chloro-1′-[(3,5-dimethoxynaphth-2-yl)carbonyl]spiro[2H-1,3-benzoxazin-2,4′-piperidin]-4-(3H)-one]	450	1900
COc1ccc2cc3c(cc2c1)C(=O)NC1(CCN(C(=O)c2cc(OC)c4cccc(OC)c4c2)CC1)O3 [Compound 162]		5
COc1cc(C(=O)N2CCC3(CC2)NC(=O)c2cc(Cl)ccc2O3)cc2c(OC)cccc12 [Compound 171]	14	28
COc1cc2c(cc1OC)C(=O)NC1(CCN(C(=O)c3cc(OC)c4cccc(OC)c4c3)CC1)N2 [Compound 190]		62
COc1cc(C(=O)N2CCC3(CC2)NC(=O)c2cc(C(C)C)ccc2O3)cc2[nH]ncc12 [Compound 231]	33	47
COc1cc(C(=O)N2CCC3(CC2)NC(=O)c2cc(Br)ccc2N3)nc2c(OC)cccc12 [Compound 71, 6′-Bromo-1-[(4,8-dimethoxyquinoline-2-yl)carbonyl]spiro[piperidine-4,2′(1′H)-quinazolin]-4′-(3′H)-one]	490	1000
COc1ccc2c(c1)C(=O)NC1(CCN(C(=O)c3[nH]c4c(OC)cccc4c3C)CC1)N2 [Compound 189, 6′-Methoxy-1-[[7-methoxy-3-methyl-1H-indol-2-yl)carbonyl]spiro-[piperidine-4,2′(1′H)-quinazolin]-4′-(3′H)-one]		500
COc1ccc2c(c1)C(=O)NC1(CCN(C(=O)c3cc4c(OC)ccc(OC)c4n3C)CC1)O2 [Compound 181]		420
COc1ccc2c(c1)C(=O)NC1(CCN(C(=O)c3cc(OC)c4cccc(SC)c4n3)CC1)O2 [Compound 157]	48	33
COc1cc(C(=O)N2CCC3(CC2)NC(=O)c2cc(C)c(C)cc2O3)nc2c(SC)cccc12 [Compound 154]	27	30
COc1cc(C(=O)N2CCC3(CC2)NC(=O)c2cc(NC(C)=O)ccc2O3)nc2c(OC)cccc12 [Compound 9]	56	92
COc1cc(C(=O)N2CCC3(CC2)NC(=O)c2cc(OC(F)(F)F)ccc2N3)cc2c(OC)cccc12 [Compound 194]		70
COc1cc(C(=O)N2CCC3(CC2)NC(=O)c2cc(OC(F)(F)F)ccc2N3)nc2c(OC)cccc12 [Compound 195]		500
Cn1nccc1-c1cccc(C(=O)N2CCC3(CC2)NC(=O)c2cc(Br)ccc2O3)c1 [Compound 141, 6-Bromo-1′-[3-(1-methyl-1H-pyrazol-5-yl)benzoyl]spiro[2H-1,3-benzoxazin-2,4′-piperidin]-4-(3H)-one]	1300	
COc1cc(C(=O)N2CCC3(CC2)NC(=O)c2cc(Br)ccc2O3)nc2ccccc12 [Compound 40]	900	
CCOc1ccc2c(c1)C(=O)NC1(CCN(C(=O)c3cc(OC)c4cccc(SC)c4c3)CC1)O2 [Compound 176]		5
COc1cc(C(=O)N2CCC3(CC2)NC(=O)c2cc(OC(C)C)ccc2O3)cc2c(OC)cccc12 [Compound 170]		6
COc1cc(C(=O)N2CCC3(CC2)NC(=O)c2cc(OC(F)(F)F)ccc2O3)cc2c(SC)cccc12 [Compound 175]		21
COc1cc(C(=O)N2CCC3(CC2)NC(=O)c2cc(C(C)C)ccc2O3)cc2c(OC)cccc12 [Compound 178]		14
